{"source": "patent US11292759B2", "about": "“Hydroxycitric acid metal heterocyclic compounds with covalent characteristics” (GLYKON TECHNOLOGIES GROUP, LLC, priority 2018, dated 2022)", "key": {"[1]": {"biological_target": "T1, ATP citrate lyase (EC 4.1.3.8) (Homo sapiens, UniProt P53396)", "T1 sequence (P53396 1-1101)": "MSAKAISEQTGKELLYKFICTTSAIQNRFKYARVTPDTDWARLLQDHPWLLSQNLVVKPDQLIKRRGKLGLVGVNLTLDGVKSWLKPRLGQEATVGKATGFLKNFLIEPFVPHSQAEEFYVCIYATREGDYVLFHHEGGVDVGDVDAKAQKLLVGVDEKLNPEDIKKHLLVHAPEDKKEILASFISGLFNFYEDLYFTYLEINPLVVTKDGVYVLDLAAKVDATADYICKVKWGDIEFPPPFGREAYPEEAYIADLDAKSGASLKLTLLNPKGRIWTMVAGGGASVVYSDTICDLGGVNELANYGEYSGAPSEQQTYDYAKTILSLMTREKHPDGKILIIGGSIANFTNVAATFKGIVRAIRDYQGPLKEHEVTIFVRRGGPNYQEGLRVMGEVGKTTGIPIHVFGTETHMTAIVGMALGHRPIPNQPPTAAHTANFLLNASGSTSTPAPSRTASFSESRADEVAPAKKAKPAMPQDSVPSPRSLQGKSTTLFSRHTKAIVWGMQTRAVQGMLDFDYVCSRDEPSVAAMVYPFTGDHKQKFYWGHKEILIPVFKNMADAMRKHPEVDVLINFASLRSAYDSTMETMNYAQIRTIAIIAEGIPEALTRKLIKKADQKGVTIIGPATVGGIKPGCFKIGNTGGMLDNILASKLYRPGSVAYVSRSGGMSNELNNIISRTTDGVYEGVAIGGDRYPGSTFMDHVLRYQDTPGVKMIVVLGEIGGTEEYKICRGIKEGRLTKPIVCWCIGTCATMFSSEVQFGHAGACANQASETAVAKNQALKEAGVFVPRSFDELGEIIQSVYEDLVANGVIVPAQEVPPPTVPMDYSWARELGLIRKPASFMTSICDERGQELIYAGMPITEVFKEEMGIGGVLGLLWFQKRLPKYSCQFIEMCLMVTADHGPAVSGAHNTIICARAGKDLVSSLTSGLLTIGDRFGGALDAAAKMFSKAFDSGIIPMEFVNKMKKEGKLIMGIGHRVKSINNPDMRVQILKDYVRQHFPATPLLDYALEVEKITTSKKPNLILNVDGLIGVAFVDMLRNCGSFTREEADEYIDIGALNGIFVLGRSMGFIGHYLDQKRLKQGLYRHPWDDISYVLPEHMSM", "details": "cited from earlier work"}, "[2]": {"system": "de novo lipogenesis (DNL)", "details": "obese subjects, 6 g HCA/day for 5 days; cited from earlier work"}, "[3]": {"system": "de novo lipogenesis (DNL)", "assay": "De novo lipogenesis in rats (literature)", "format": "in vivo", "details": "for a 70 kg human being", "description": "Dosages of various HCA compositions found to be effective are quite large, indeed beyond the normal range for pharmaceutical products, with efficacy that is highly variable. […] A later study found a significant, yet limited effect after 7 days of a diet designed specifically to induce de novo lipogenesis in humans. (Physiol Behav. 2006 Jul. 30; 88(4-5): 371-81). See also, Nutr Metab (Lond). 2005 Sep. 13; 2:23."}, "[4]": {"assay": "Conductivity of solutions (HACH Conductivity/TDS meter)", "format": "physicochemical", "details": "Concentration 0.3 mmol/l in demineralized water, no additive", "description": "The structure of the subject compounds (e.g., as described herein) can be deduced using a conductance meter to observe the extent of dissociate of the first and/or second metals from the compounds. In an experiment described below equimolar samples and comparative electrolyte conductance to K-acetate solution as a standard, data may be obtained which is characteristic of electrolyte binary conductants. […] The KMgHCA solution in water may have a pH 8-10 depending on the concentration. Under this condition, the heterocyclic anion formed will tend toward a stable form rather than an ionizable one.\nSeveral experiments investigating the electrical conductivities of solutions of KMgHCA, KZnHCA and KMnHCA are performed. The equipment used is HACH Conductivity/TDS meter, P/N=4460-00.\nMaterials: KMgHCA.4H2O, KZnHCA.2H2O, KMnHCA.2H2O are prepared using methods described herein. KC2H3O2 and […] was obtained from Merck. H2O used was demineralized water.\nGeneral procedure: All the HCA compounds and Acetate were weighed and placed in a volumetric flask and dissolved with demineralized water to one liter solution and then they were tested the conductivity (EC)."}, "Osteoporosis": {"system": "Osteoporosis", "assay": "Example 14: comparison of KCaHCA and/or KMgHCA compositions in one subject", "format": "in vivo, human", "details": "200 mg doses, after switch from experiment 1 regimen", "protocol": "• Subject: (cited as Example 12, above) • • Problem: Osteoporosis • Treatment: Materials were consumed 3 times a day after meals. • Experiment 1. Blending 150 mg KMgHCA.8H2O+50 mg KCaHCA.3H2O • A 200 mg mixture of KCaHCA (25%) and KMgHCA (75%) prepared according to the subject methods was used. The actual percentage of calcium was (40/338)×25%=2.96%. Since KCaHCA.3H2O was used the percentage of magnesium in the composition was (24/412)×75%=4.37%. Since KMgHCA.8H2O was used, the ratio Ca:Mg=0.15:0.36 in mmol. • Experiment 2. 200 mg KMgHCA.8H2O • Experiment 3."}, "[5]": {"system": "osteoporosis and calcification", "assay": "Example 13: comparison of bimetal regimes in two subjects", "format": "in vivo, human", "set-up": "key to Treatment performance: ++: very good performance; +−: good but slight complaint", "protocol": "Subject I: a person, 40 kg (cited in Example 11, above)\nSubject II: a person; 72 kg\nTreatment: A. Mixture 25% KCa HCA+75% KMg HCA bimetals (100-200 mg)\nTreatment B: Only KMg HCA but not KCa HCA was used."}, "[6]": {"details": "cited from earlier work"}}}
{"smiles": "O=C(O)CC(O)(C(=O)O)C(O)C(=O)O", "note": "(single isomer, unassigned; (-)) [(−)-HCA, (−)-hydroxycitric acid]", "values": [{"measurement": "inhibition of ATP citrate lyase", "setting": "[1]", "result": "potent inhibitor"}]}
{"smiles": "O=C(O)CC(O)(C(=O)O)C(O)C(=O)O", "note": "(stereo not drawn) [HCA, Hydroxycitric acid]", "values": [{"measurement": "inhibition of DNL / promotion of fatty acid oxidation", "setting": "[2]", "result": "failed to inhibit DNL or to promote fatty acid oxidation"}, {"measurement": "effective dose extrapolated from rats", "setting": "[3]", "result": "approximately 4.5 g/day"}]}
{"smiles": "CC(=O)[O-].[K+]", "note": "[KC2H3O2, K-acetate]", "values": [{"measurement": "E. C (μS/cm)", "setting": "[4]", "result": 56.06, "unit": "μS/cm"}]}
{"smiles": "O=C([O-])CC(O)(C(=O)[O-])C(O)C(=O)[O-].[K+].[Mg+2]", "note": "(stereo not drawn) [KMgHCA]", "values": [{"measurement": "patient's condition observed during treatment", "setting": "Osteoporosis", "result": "slight difficult to walk"}, {"measurement": "Treatment performance", "setting": "[5]; Patient II (72 kg)", "result": "+−"}, {"measurement": "reduction of symptoms", "setting": "[5]; Subject II", "result": "partial reduction of symptoms"}]}
{"smiles": "CC(=O)[O-].CC(=O)[O-].O.O.O.O.[Mg+2]", "note": "[Mg(CH3COO)2•4H2O]", "values": [{"measurement": "E. C (μS/cm)", "setting": "[4]", "result": 32.3, "unit": "μS/cm"}]}
{"smiles": "O=C(O)CO", "note": "[glycolic acid]", "values": [{"measurement": "pKa", "setting": "[6]", "result": "approx. 3.83"}]}
